Measurements: patent US10611740B2, “Aryl dihydro-2H-benzo[b][1,4]oxazine sulfonamide and related compounds for use as agonists of RORγ and the treatment of disease” (Lycera Corporation, priority 2015, dated 2020)

Key:
Gal4-RORγ-LBD = biological target: T1, Gal4-RORγ-LBD (Homo sapiens, UniProt P51449); assay: Gal4-RORγ Luciferase Reporter Assay in HEK-293T Cells; assay type: cell-based; details: HEK-293 cells, luciferase reporter, with 2 μM ursolic acid
T1 construct: expressed in transfected cells; host or cells: HEK-293 cells (pcDNA3.1neo plasmid)
T1 sequence (P51449 269-508 limits assumed): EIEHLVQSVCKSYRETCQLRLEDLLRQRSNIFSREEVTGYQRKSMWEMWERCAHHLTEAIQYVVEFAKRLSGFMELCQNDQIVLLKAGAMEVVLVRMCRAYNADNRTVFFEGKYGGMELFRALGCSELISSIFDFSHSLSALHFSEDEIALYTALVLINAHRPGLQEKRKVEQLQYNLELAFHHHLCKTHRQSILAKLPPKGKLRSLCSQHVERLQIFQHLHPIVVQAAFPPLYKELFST
In short: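 HEK-293 cells were transiently co-transfected with Gal4-RORγ-LBD and pGL4.31 Gal4-luciferase, with ursolic acid added at 2 μM final. Compounds were incubated overnight at 37° C. in 0.2% DMSO and luminescence read with One-Glo. Max Response is the upper plateau of a 4-parameter logistic fit, with signal lacking ursolic acid or compound set to 100.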

RORγ-LBD = biological target: T2, RORγ-LBD (Homo sapiens, UniProt P51449); assay: RORγ-Ligand Binding Domain (LBD) TR-FRET Assay; assay type: biochemical;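 for TR-FRET Assay Max Response: 665/615 nm ratio relative to signal without ursolic acid or compound set at 100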
T2 construct: made in house; host or cells: SF9 cells (baculovirus)
T2 sequence (P51449 269-508 limits assumed): T1 sequence (P51449 269-508 limits assumed)
In short: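 Compounds, diluted in DMSO and then in assay buffer (1% DMSO final), were combined with His-tagged RORγ-LBD lysate at roughly 3 nM final and a 200 nM biotinylated SRC1 LXXLL peptide. Ursolic acid was included at 2 μM final. Coactivator recruitment was detected by TR-FRET.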

Row | SMILES | EC50 (Gal4-RORγ-LBD) [nM] | EC50 (RORγ-LBD) [nM] | Gal4-RORγ Assay Max Response (Gal4-RORγ-LBD) | TR-FRET Assay Max Response (RORγ-LBD)
1 | O=C(O)CC[C@H]1CN(S(=O)(=O)c2cccc(C(F)(F)F)c2)c2cc(-c3ncc4ccccn34)ccc2O1 [Compound 4N, (S)-3-(6-(imidazo[1,5-a]pyridin-3-yl)-4-((3-(trifluoromethyl)-phenyl)sulfonyl)-3,4-dihydro-2H-benzo[b][1,4]oxazin-2-yl)propanoic acid] | 500 to 5000 | < 500 | ** (The symbol “**” indicates a value in the range of greater than 90 to 150) | **** (The symbol “****” indicates a value greater than 200)
2 | O=C(O)CC[C@H]1CN(S(=O)(=O)c2cccc(C(F)(F)F)c2)c2cc(-c3cnn4ccccc34)ccc2O1 [Compound 4O, (S)-3-(6-(pyrazolo[1,5-a]pyridin-3-yl)-4-((3-(trifluoromethyl)-phenyl)sulfonyl)-3,4-dihydro-2H-benzo[b][1,4]oxazin-2-yl)propanoic acid] | 500 to 5000 | < 500 | ** (The symbol “**” indicates a value in the range of greater than 90 to 150) | *** (The symbol “***” indicates a value in the range of greater than 150 to 200)
3 | O=C(O)CC[C@H]1CN(S(=O)(=O)c2cccc(C(F)(F)F)c2)c2cc(-c3cccc4nccn34)ccc2O1 [Compound 4P, (S)-3-(6-(imidazo[1,2-a]pyridin-5-yl)-4-((3-(trifluoromethyl)-phenyl)sulfonyl)-3,4-dihydro-2H-benzo[b][1,4]oxazin-2-yl)propanoic acid] | 5000 to 10000 | < 500 | ** (The symbol “**” indicates a value in the range of greater than 90 to 150) | ** (The symbol “**” indicates a value in the range of greater than 90 to 150)
4 | Cn1cnc(-c2ccc3c(c2)N(S(=O)(=O)c2cccc(C(F)(F)F)c2)C[C@H](CCC(=O)O)O3)c1 [Compound 4Q, (S)-3-(6-(1-methyl-1H-imidazol-4-yl)-4-((3-(trifluoromethyl)-phenyl)sulfonyl)-3,4-dihydro-2H-benzo[b][1,4]oxazin-2-yl)propanoic acid] | > 10000 | 500 to 5000 |  | ** (The symbol “**” indicates a value in the range of greater than 90 to 150)
5 | O=C(O)CC[C@H]1CN(S(=O)(=O)c2cccc(C(F)(F)F)c2)c2cc(-c3cccc(C4CC4)c3)ccc2O1 [Compound 4R, (S)-3-(6-(3-cyclopropylphenyl)-4-((3-(trifluoromethyl)phenyl)-sulfonyl)-3,4-dihydro-2H-benzo[b][1,4]oxazin-2-yl)propanoic acid] | < 500 | < 500 | **** (The symbol “****” indicates a value greater than 200) | **** (The symbol “****” indicates a value greater than 200)
6 | Cc1cccc(-c2ccc3c(c2)N(S(=O)(=O)c2cccc(C(F)(F)F)c2)C[C@H](CCC(=O)O)O3)n1 [Compound 4S, (S)-3-(6-(6-methylpyridin-2-yl)-4-((3-(trifluoromethyl)phenyl)-sulfonyl)-3,4-dihydro-2H-benzo[b][1,4]oxazin-2-yl)propanoic acid] | 500 to 5000 | < 500 | **** (The symbol “****” indicates a value greater than 200) | **** (The symbol “****” indicates a value greater than 200)
7 | O=C(O)CC[C@H]1CN(S(=O)(=O)c2cccc(C(F)(F)F)c2)c2cc(-c3cccc(OC(F)F)c3)ccc2O1 [Compound 4T, (S)-3-(6-(3-(difluoromethoxy)-phenyl)-4-((3-(trifluoromethyl)-phenyl)sulfonyl)-3,4-dihydro-2H-benzo[b][1,4]oxazin-2-yl)propanoic acid] | < 500 | < 500 | **** (The symbol “****” indicates a value greater than 200) | **** (The symbol “****” indicates a value greater than 200)

Second part, led by results:

Row | EC50 (Gal4-RORγ-LBD) [nM] | EC50 (RORγ-LBD) [nM] | SMILES | Gal4-RORγ Assay Max Response (Gal4-RORγ-LBD) | TR-FRET Assay Max Response (RORγ-LBD)
8 | 500 to 5000 | 500 to 5000 | Cc1nn(C)c(C)c1-c1ccc2c(c1)N(S(=O)(=O)c1cccc(C(F)(F)F)c1)C[C@H](CCC(=O)O)O2 [Compound 4U, (S)-3-(4-((3-(trifluoromethyl)-phenyl)sulfonyl)-6-(1,3,5-trimethyl-1H-pyrazol-4-yl)-3,4-dihydro-2H-benzo[b][1,4]-oxazin-2-yl)propanoic acid] | * (The symbol “*” indicates a value in the range of 25 to 90) | * (The symbol “*” indicates a value in the range of 25 to 90)
9 | 500 to 5000 | < 500 | O=C(O)CC[C@H]1CN(S(=O)(=O)c2cccc(C(F)(F)F)c2)c2cc(-c3cccc4ccnn34)ccc2O1 [Compound 4V, (S)-3-(6-(pyrazolo[1,5-a]-pyridin-7-yl)-4-((3-(trifluoro-methyl)-phenyl)sulfonyl)-3,4-dihydro-2H-benzo[b][1,4]-oxazin-2-yl)propanoic acid] | ** (The symbol “**” indicates a value in the range of greater than 90 to 150) | **** (The symbol “****” indicates a value greater than 200)
10 | 500 to 5000 | 500 to 5000 | Cn1ccc(-c2ccc3c(c2)N(S(=O)(=O)c2cccc(C(F)(F)F)c2)C[C@H](CCC(=O)O)O3)n1 [Compound 4W, (S)-3-(6-(1-methyl-1H-pyrazol-3-yl)-4-((3-(trifluoromethyl)-phenyl)sulfonyl)-3,4-dihydro-2H-benzo[b][1,4]oxazin-2-yl)propanoic acid] | ** (The symbol “**” indicates a value in the range of greater than 90 to 150) | **** (The symbol “****” indicates a value greater than 200)
11 | < 500 | < 500 | CN(C)c1cccc(-c2ccc3c(c2)N(S(=O)(=O)c2cccc(C(F)(F)F)c2)C[C@H](CCC(=O)O)O3)n1 [Compound 4X, (S)-3-(6-(6-(dimethylamino)-pyridin-2-yl)-4-((3-(trifluoro-methyl)phenyl)sulfonyl)-3,4-dihydro-2H-benzo[b][1,4]-oxazin-2-yl)propanoic acid] | ** (The symbol “**” indicates a value in the range of greater than 90 to 150) | **** (The symbol “****” indicates a value greater than 200)
12 | 500 to 5000 | < 500 | COc1cncc(-c2ccc3c(c2)N(S(=O)(=O)c2cccc(C(F)(F)F)c2)C[C@H](CCC(=O)O)O3)n1 [Compound 4Y, (S)-3-(6-(6-methoxypyrazin-2-yl)-4-((3-(trifluoromethyl)-phenyl)sulfonyl)-3,4-dihydro-2H-benzo[b][1,4]oxazin-2-yl)propanoic acid] | * (The symbol “*” indicates a value in the range of 25 to 90) | **** (The symbol “****” indicates a value greater than 200)
13 | > 10000 | 500 to 5000 | Cc1nnc(-c2ccc3c(c2)N(S(=O)(=O)c2cccc(C(F)(F)F)c2)C[C@H](CCC(=O)O)O3)o1 [Compound 4Z, (S)-3-(6-(5-methyl-1,3,4-oxadiazol-2-yl)-4-((3-(trifluoro-methyl)phenyl)sulfonyl)-3,4-dihydro-2H-benzo[b][1,4]-oxazin-2-yl)propanoic acid] |  | * (The symbol “*” indicates a value in the range of 25 to 90)
14 | 500 to 5000 | < 500 | COc1cc(S(=O)(=O)N2C[C@H](CCC(=O)O)Oc3ccc(-c4cccc(Cl)c4)cc32)ccc1F [Compound 5, (S)-3-(6-(3-chlorophenyl)-4-((4-fluoro-3-methoxyphenyl)sulfonyl)-3,4-dihydro-2H-benzo[b][1,4]oxazin-2-yl)propanoic acid] | ** (The symbol “**” indicates a value in the range of greater than 90 to 150) | *** (The symbol “***” indicates a value in the range of greater than 150 to 200)
15 | 500 to 5000 | < 500 | CCOc1nn(CC)cc1S(=O)(=O)N1C[C@H](CCC(=O)O)Oc2ccc(-c3cccc(Cl)c3)cc21 [Compound 6A, (S)-3-(6-(3-chlorophenyl)-4-((3-ethoxy-1-ethyl-1H-pyrazol-4-yl)sulfonyl)-3,4-dihydro-2H-benzo[b][1,4]oxazin-2-yl)propanoic acid] | * (The symbol “*” indicates a value in the range of 25 to 90) | *** (The symbol “***” indicates a value in the range of greater than 150 to 200)
16 | 500 to 5000 | < 500 | O=C(O)CC[C@H]1CN(S(=O)(=O)c2cccc(Cl)c2)c2cc(-c3cccc(Cl)c3)ccc2O1 [Compound 6B, (S)-3-(6-(3-chlorophenyl)-4-((3-chlorophenyl)sulfonyl)-3,4-dihydro-2H-benzo[b][1,4]oxazin-2-yl)propanoic acid] | ** (The symbol “**” indicates a value in the range of greater than 90 to 150) | **** (The symbol “****” indicates a value greater than 200)
